Source: patent US9399636B2, “Substituted dipyridylamines and uses thereof” (Genentech, Inc., priority 2012, dated 2016)

Biological target: T1, DLK (Homo sapiens, UniProt Q12852)
T1 construct: N-terminally GST-tagged DLK (catalytic domain amino acid 1-520) (Carna Bioscience); GST (N); purchased Carna Bioscience
T1 sequence (Q12852 1-520): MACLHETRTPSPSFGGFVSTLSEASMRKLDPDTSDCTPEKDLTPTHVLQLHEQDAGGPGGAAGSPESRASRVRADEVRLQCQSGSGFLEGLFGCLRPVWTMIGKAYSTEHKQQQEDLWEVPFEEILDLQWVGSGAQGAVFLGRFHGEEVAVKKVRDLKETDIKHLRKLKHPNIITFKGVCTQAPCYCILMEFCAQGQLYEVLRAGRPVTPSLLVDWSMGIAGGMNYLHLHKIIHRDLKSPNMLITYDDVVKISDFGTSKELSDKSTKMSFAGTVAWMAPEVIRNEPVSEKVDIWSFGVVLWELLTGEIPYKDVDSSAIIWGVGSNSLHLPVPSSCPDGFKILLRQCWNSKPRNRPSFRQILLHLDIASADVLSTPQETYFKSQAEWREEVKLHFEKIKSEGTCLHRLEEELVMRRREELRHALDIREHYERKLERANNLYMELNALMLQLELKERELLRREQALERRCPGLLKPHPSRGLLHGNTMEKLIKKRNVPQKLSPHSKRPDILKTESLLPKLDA
Assay: DLK TR-FRET assay
Type: biochemical
Settings: 5 nM GST-tagged DLK (catalytic domain amino acid 1-520), 40 nM HIS-tagged MKK4 K131M substrate, 30 μM ATP, 60 minutes
Summary of the method: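 5 nM GST-tagged DLK catalytic domain (aa 1-520) with 40 nM HIS-MKK4 K131M substrate and 30 μM ATP in HEPES pH 7.5/MgCl2 buffer. Compounds tested in 1:3 serial dilution from 20 uM, 60 min at ambient temperature. EDTA quench, then 3 h with Eu-anti-phospho-MKK4 and D2-anti-HIS before TR-FRET read (665/615 nm).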

SMILES	Ki [nM]
CC(=O)N1CCC(c2cc(Nc3cc(C#N)ccn3)nc(C3CC3)c2)CC1 [Example 59, 2-(1′-Acetyl-6-cyclopropyl-1′,2′,3′,4′,5′,6′-hexahydro-[4,4′]bipyridinyl-2-ylamino)-isonicotinonitrile]	1.5
N#Cc1ccnc(Nc2cc(C3(C#N)CCOCC3)cc(N3CCC(F)(F)C3)n2)c1 [Example 61, 2-[4-(4-Cyano-tetrahydro-pyran-4-yl)-6-(3,3-difluoro-pyrrolidin-1-yl)-pyridin-2-ylamino]-isonicotinonitrile]	4.7
N#Cc1ccnc(Nc2cc(C3CCN(C4COC4)CC3)cc(N3CCC[C@@H]3C(F)(F)F)n2)c1 [Example 70, 2-[1′-Oxetan-3-yl-6-((R)-2-trifluoromethyl-pyrrolidin-1-yl)-1′,2′,3′,4′,5′,6′-hexahydro-[4,4′]bipyridinyl-2-ylamino]-isonicotinonitrile]	1.8
CC(=O)N1CCC(c2cc(Nc3cc(C(F)F)ccn3)nc(C3CC3)c2)CC1 [Example 57, 1-[6′-Cyclopropyl-2′-(4-difluoromethyl-pyridin-2-ylamino)-3,4,5,6-tetrahydro-2H-[4,4′]bipyridinyl-1-yl]-ethanone]	3.5

The remaining lines, values ahead:

Ki [nM]	SMILES
3600	Cc1ccc(Nc2cc(C3CCN(C(=O)C4CCCCC4)CC3)ccn2)nc1 [Example 145, cyclohexyl(4-(2-((5-methylpyridin-2-yl)amino)pyridin-4-yl)piperidin-1-yl)methanone]
0.17	C[C@@H]1CCCN1c1cc(C2CCN(CCO)CC2)cc(Nc2cc(C(F)(F)F)ccn2)n1 [Example 140, 2-[6′-((R)-2-Methyl-pyrrolidin-1-yl)-2′-(4-trifluoromethyl-pyridin-2-ylamino)-3,4,5,6-tetrahydro-2H-[4,4′]bipyridinyl-1-yl]-ethanol]
0.88	N#Cc1ccnc(Nc2cc(C3CCOCC3)cc(N3CCC(F)(F)C3)n2)c1 [Example 130, 2-[6-(3,3-Difluoro-pyrrolidin-1-yl)-4-(tetrahydro-pyran-4-yl)-pyridin-2-ylamino]-isonicotinonitrile]
35	N#Cc1ccnc(Nc2cc(C3CCN(C4COC4)CC3)cc(N3CCCC3=O)n2)c1 [Example 79, 2-[1′-Oxetan-3-yl-6-(2-oxo-pyrrolidin-1-yl)-1′,2′,3′,4′,5′,6′-hexahydro-[4,4′]bipyridinyl-2-ylamino]-isonicotinonitrile]
12.6	N#Cc1ccnc(Nc2cc(C3CCOCC3)cc(N3CC(F)(F)C3)n2)c1 [Example 104, 2-[6-(3,3-Difluoro-azetidin-1-yl)-4-(tetrahydro-pyran-4-yl)-pyridin-2-ylamino]-isonicotinonitrile]
